According to patent publication US11667666B2, “Methods and compositions for treatment of cancer” (CFD Research Corporation, priority 2020, dated 2023):

test system: PANC-1 cells; test: Cell Titer-Glo luminescent cell viability assay, in vitro compound screening against pancreatic cancer cell lines; type: cell-based; conditions: 24 and 48-hour post dosing; 10 nM, 100 nM, 1 μM, 10 μM, and 100 μM; n=4
Procedure: In vitro compound screening against pancreatic cancer cell lines for IC50 determination. […] ASPC-1, BXPC-3, MIA-PaCa-2, and PANC-1 cell lines were obtained from ATCC. […] It should be noted that PANC-1, MIA-PaCa-2 and BxPC-3 cell-lines are gemcitabine-resistant cell-lines.
The IC50 was calculated using the following Log (inhibitor) versus Response equation: Y=Bottom+(Top−Bottom)/(1+10^((X-Log IC50))). Representative data and calculated IC50 values using the assay for representative compounds are shown FIGS. 4-7.

Row | Molecule | inhibition of cell-proliferation
1 | CC1(C)O[C@@H]2C[C@H]3[C@@H]4CCC5=CC(=O)C=C[C@]5(C)[C@H]4[C@@H](O)C[C@]3(C)[C@]2(C(=O)CO)O1 [Compound 7, desonide] | did not show any appreciable inhibition of cell-proliferation
2 | bentiromide [Compound 5] | did not show any appreciable inhibition of cell-proliferation
3 | glimepiride [Compound 8] | did not show any appreciable inhibition of cell-proliferation
